Counter-ions that a name gives are not always drawn.
Biological target: T1, human EP1 receptor (Homo sapiens, UniProt P34995)
T1 sequence (P34995 1-402): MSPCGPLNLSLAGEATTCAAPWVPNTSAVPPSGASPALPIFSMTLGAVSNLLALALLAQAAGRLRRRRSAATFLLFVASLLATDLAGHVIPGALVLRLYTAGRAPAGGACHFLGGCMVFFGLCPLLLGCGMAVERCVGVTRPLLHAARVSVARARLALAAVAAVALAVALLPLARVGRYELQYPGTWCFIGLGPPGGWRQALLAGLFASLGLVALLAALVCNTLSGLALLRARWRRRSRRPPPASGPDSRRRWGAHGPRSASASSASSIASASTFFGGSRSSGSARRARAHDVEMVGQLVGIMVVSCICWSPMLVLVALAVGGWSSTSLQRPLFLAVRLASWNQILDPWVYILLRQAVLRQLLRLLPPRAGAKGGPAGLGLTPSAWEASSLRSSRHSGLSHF
Assay: Binding assay for the human prostanoid EP1 receptor (radioligand competition)
Set-up: expressed in transfected cells; host or cells: CHO-K1 (membranes)
Settings: CHO-K1 membranes; [3H]-PGE2 for Examples 1-17, 19, 33, 34, 60 and 61, 3-{2-[5-Bromo-2-(2,4-difluorobenzyloxy)-phenyl]-5-methyl-pyrrol-1-yl}-6-[3H3-methoxy]methoxy-benzoic acid for the remaining; averages of a number of experiments; read-out: pIC50 value (binding assay for the human prostanoid EP1 receptor) (converted)
Procedure, shortened: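 Membranes from CHO-K1 cells stably expressing human EP1, in pH 6 MES buffer with 10 mM MgCl2. Competition with [3H]-PGE2 (3 nM final) for 30 min at 30 °C, or alternatively with a tritiated benzoic-acid ligand (0.2 nM final) for 45 min at 37 °C; filtration and scintillation counting, IC50 by non-linear fitting.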

Structure (SMILES)	IC50 [µM]
CC(C)c1cc2cc(Cl)cc(Cc3ccc(C(=O)O)o3)c2o1 [Example 1, 5-{[5-Chloro-2-(1-methylethyl)-1-benzofuran-7-yl]methyl}-2-furancarboxylic Acid]	≤ 0.1
Cc1cc(C(=O)Nc2ccc(CN3CCC(O)CC3)cc2)nn1Cc1cc(Cl)cc2cc(C(C)C)oc12 [Example 16, 1-{[5-Chloro-2-(1-methylethyl)-1-benzofuran-7-yl]methyl}-N-{4-[(4-hydroxy-1-piperidinyl)methyl]phenyl}-5-methyl-1H-pyrazole-3-carboxamide hydrochloride]	≤ 0.1
Cc1cc(C(=O)NN2CCOCC2)nn1Cc1cc(Cl)cc2cc(C3CCCCC3)oc12 [Example 28, 1-[(5-Chloro-2-cyclohexyl-1-benzofuran-7-yl)methyl]-5-methyl-N-4-morpholinyl-1H-pyrazole-3-carboxamide]	≤ 0.1

Other lines, results leading:

IC50 [µM]	Structure (SMILES)
≤ 0.1	Cc1cc(C(=O)Nc2ccc(CN3CC[C@@H](O)C3)cc2)nn1Cc1cc(Cl)cc2cc(C(C)C)oc12 [Example 17, 1-{[5-Chloro-2-(1-methylethyl)-1-benzofuran-7-yl]methyl}-N-(4-{[(3R)-3-hydroxy-1-pyrrolidinyl]methyl}phenyl)-5-methyl-1H-pyrazole-3-carboxamide hydrochloride]
≤ 0.1	Cc1cc(C(=O)O)nn1Cc1cc(Cl)cc2cc(C(C)C)oc12 [Example 3, 1-{[5-Chloro-2-(1-methylethyl)-1-benzofuran-7-yl]methyl}-5-methyl-1H-pyrazole-3-carboxylic Acid]
≤ 0.1	CCNCc1ccc(NC(=O)c2cc(C)n(Cc3cc(Cl)cc4cc(C(C)C)oc34)n2)cc1 [Example 15, 1-{[5-Chloro-2-(1-methylethyl)-1-benzofuran-7-yl]methyl}-N-{4-[(ethylamino)methyl]phenyl}-5-methyl-1H-pyrazole-3-carboxamide hydrochloride]

— patent US20090099169A1, “Benzofuran Compounds As EP1 Receptor Antagonists” (GLAXO GROUP LIMITED, priority 2006, published 2009)
